Converted amounts (≈) assume the structure as drawn.
test system: non-replicating M. tuberculosis; experiment: microbe, parasite or virus in culture; type: cell-based, Mycobacterium tuberculosis; settings: Mycobacterium tuberculosis, 72 h; Table 9; 3 Day Exposure to Drug; read-out: MIC NR 0.01 Inoc.

| Structure (SMILES) | MIC [µg/mL] |
| --- | --- |
| COc1ccc(CCC(=O)N[C@@H]2C(=O)N3C(C(=O)O)=C(C)CS[C@H]23)cc1 [Compound 108] | > 100 |
| CC1=C(C(=O)O)N2C(=O)[C@@H](NC(=O)COc3ccccc3)[C@H]2SC1 [Compound 109] | 100 (≈ 287 µM) |
| CCCCOc1ccc(CCC(=O)N[C@@H]2C(=O)N3C(C(=O)O)=C(C)CS[C@H]23)cc1 [Compound 110] | 100 (≈ 239 µM) |
| CC1=C(C(=O)O)N2C(=O)[C@@H](NC(=O)CCc3ccc(Br)cc3)[C@H]2SC1 [Compound 111] | > 100 |
| CC1=C(C(=O)O)N2C(=O)[C@@H](NS(=O)(=O)Cc3ccccc3)[C@H]2SC1 [Compound 112] | > 100 |
| CC1=C(C(=O)O)N2C(=O)[C@@H](NC(=O)CCc3ccc(F)cc3)[C@H]2SC1 [Compound 113] | > 100 |
| CC1=C(C(=O)O)N2C(=O)[C@@H](NC(=O)c3ccc(Cl)cc3)[C@H]2SC1 [Compound 114] | > 100 |
| CC1=C(C(=O)O)N2C(=O)[C@@H](NC(=O)Cc3ccc(Cl)cc3)[C@H]2SC1 [Compound 115] | > 100 |
| CC1=C(C(=O)O)N2C(=O)[C@@H](NC(=O)CCc3ccccc3Cl)[C@H]2SC1 [Compound 116] | > 100 |
| CCCNC(=O)C1=C(C)CS[C@@H]2[C@H](NC(=O)CCc3ccc(OC)cc3)C(=O)N12 [Compound 117] | 100 (≈ 240 µM) |

same assay, conditions: Mycobacterium tuberculosis, 72 h; Table 9; 3 Day Exposure to Drug; read-out: MIC NR 0.1 Inoc.

| Structure (SMILES) | MIC [µg/mL] |
| --- | --- |
| COc1ccc(CCC(=O)N[C@@H]2C(=O)N3C(C(=O)O)=C(C)CS[C@H]23)cc1 [Compound 108] | > 100 |
| CC1=C(C(=O)O)N2C(=O)[C@@H](NC(=O)COc3ccccc3)[C@H]2SC1 [Compound 109] | > 100 |
| CCCCOc1ccc(CCC(=O)N[C@@H]2C(=O)N3C(C(=O)O)=C(C)CS[C@H]23)cc1 [Compound 110] | > 100 |
| CC1=C(C(=O)O)N2C(=O)[C@@H](NC(=O)CCc3ccc(Br)cc3)[C@H]2SC1 [Compound 111] | > 100 |
| CC1=C(C(=O)O)N2C(=O)[C@@H](NS(=O)(=O)Cc3ccccc3)[C@H]2SC1 [Compound 112] | > 100 |
| CC1=C(C(=O)O)N2C(=O)[C@@H](NC(=O)CCc3ccc(F)cc3)[C@H]2SC1 [Compound 113] | > 100 |
| CC1=C(C(=O)O)N2C(=O)[C@@H](NC(=O)c3ccc(Cl)cc3)[C@H]2SC1 [Compound 114] | > 100 |
| CC1=C(C(=O)O)N2C(=O)[C@@H](NC(=O)Cc3ccc(Cl)cc3)[C@H]2SC1 [Compound 115] | > 100 |
| CC1=C(C(=O)O)N2C(=O)[C@@H](NC(=O)CCc3ccccc3Cl)[C@H]2SC1 [Compound 116] | > 100 |
| CCCNC(=O)C1=C(C)CS[C@@H]2[C@H](NC(=O)CCc3ccc(OC)cc3)C(=O)N12 [Compound 117] | > 100 |

same assay, conditions: Mycobacterium tuberculosis, read-out: MIC NR at 0.01 Inoc. and 3 Day Exposure to Drug, 7 Day Outgrowth; Table 8; ranges from multiple assays

| Structure (SMILES) | MIC [µg/mL] |
| --- | --- |
| CCCCOC(=O)C1C(C)=CS[C@@H]2[C@H](NC(=O)COc3ccccc3)C(=O)N12 (stereo partly shown) [Compound 98] | 0.39 (≈ 0.964 µM) |
| CCCOC(=O)C1=C(C)CS[C@@H]2[C@H](NC(=O)CCc3ccc(OC)cc3)C(=O)N12 [Compound 99] | 0.1 (≈ 0.239 µM) |
| CC1=C(C(=O)OCc2ccccc2)N2C(=O)[C@@H](NC(=O)CCc3ccc(Cl)cc3)[C@H]2SC1 [Compound 100] | 0.39 (≈ 0.828 µM) |
| COc1ccc(CCC(=O)N[C@@H]2C(=O)N3C(C(=O)OCc4ccccc4)=C(C)CS[C@H]23)cc1 [Compound 101] | 0.39 (≈ 0.836 µM) |
| CC1=C(C(=O)OCc2ccccc2)N2C(=O)[C@@H](NC(=O)COc3ccc(Cl)cc3)[C@H]2SC1 [Compound 102] | 0.78 (≈ 1.65 µM) |
| COc1ccc(OCC(=O)N[C@@H]2C(=O)N3C(C(=O)OCc4ccccc4)=C(C)CS[C@H]23)cc1 [Compound 103] | 0.78 (≈ 1.66 µM) |
| CC1=C(C(=O)OCc2ccccc2)N2C(=O)[C@@H](NC(=O)COc3ccccc3)[C@H]2SC1 [Compound 104] | 1.56 (≈ 3.56 µM) |
| C#CCOC(=O)N[C@@H]1C(=O)N2C(C(=O)OCC#C)=C(C)CS[C@H]12 [Compound 105] | 6.25 (≈ 18.7 µM) |
| C#CCOC(=O)C1=C(C)CS[C@@H]2[C@H](N(CC#C)CC#C)C(=O)N12 [Compound 106] | 12.5 (≈ 38.1 µM) |
| C=CC1=C(C(=O)O)N2C(=O)[C@@H](NC(=O)/C(=N\O)c3csc(N)n3)[C@H]2SC1 [Compound 107] | 50 (≈ 126 µM) |

same assay, conditions: Mycobacterium tuberculosis, read-out: MIC NR at 0.01 Inoc. and 3 Day Exposure to Drug, 11 Day Outgrowth; Table 8; ranges from multiple assays

| Structure (SMILES) | MIC [µg/mL] |
| --- | --- |
| CCCCOC(=O)C1C(C)=CS[C@@H]2[C@H](NC(=O)COc3ccccc3)C(=O)N12 (stereo partly shown) [Compound 98] | 0.39 (≈ 0.964 µM) |
| CCCOC(=O)C1=C(C)CS[C@@H]2[C@H](NC(=O)CCc3ccc(OC)cc3)C(=O)N12 [Compound 99] | 0.2 (≈ 0.478 µM) |
| CC1=C(C(=O)OCc2ccccc2)N2C(=O)[C@@H](NC(=O)CCc3ccc(Cl)cc3)[C@H]2SC1 [Compound 100] | 0.78 (≈ 1.66 µM) |
| COc1ccc(CCC(=O)N[C@@H]2C(=O)N3C(C(=O)OCc4ccccc4)=C(C)CS[C@H]23)cc1 [Compound 101] | 0.78 (≈ 1.67 µM) |
| CC1=C(C(=O)OCc2ccccc2)N2C(=O)[C@@H](NC(=O)COc3ccc(Cl)cc3)[C@H]2SC1 [Compound 102] | 1.56 (≈ 3.3 µM) |
| COc1ccc(OCC(=O)N[C@@H]2C(=O)N3C(C(=O)OCc4ccccc4)=C(C)CS[C@H]23)cc1 [Compound 103] | 1.56 (≈ 3.33 µM) |
| CC1=C(C(=O)OCc2ccccc2)N2C(=O)[C@@H](NC(=O)COc3ccccc3)[C@H]2SC1 [Compound 104] | 3.13 (≈ 7.14 µM) |
| C#CCOC(=O)N[C@@H]1C(=O)N2C(C(=O)OCC#C)=C(C)CS[C@H]12 [Compound 105] | 12.5 (≈ 37.4 µM) |
| C#CCOC(=O)C1=C(C)CS[C@@H]2[C@H](N(CC#C)CC#C)C(=O)N12 [Compound 106] | 25 (≈ 76.1 µM) |
| C=CC1=C(C(=O)O)N2C(=O)[C@@H](NC(=O)/C(=N\O)c3csc(N)n3)[C@H]2SC1 [Compound 107] | 50 (≈ 126 µM) |

test system: replicating M. tuberculosis; experiment: MIC under replication (R) conditions; type: cell-based, Mycobacterium tuberculosis; settings: Mycobacterium tuberculosis; Table 9; read-out: MIC R

| Structure (SMILES) | MIC [µg/mL] |
| --- | --- |
| COc1ccc(CCC(=O)N[C@@H]2C(=O)N3C(C(=O)O)=C(C)CS[C@H]23)cc1 [Compound 108] | > 100 |
| CC1=C(C(=O)O)N2C(=O)[C@@H](NC(=O)COc3ccccc3)[C@H]2SC1 [Compound 109] | > 100 |
| CCCCOc1ccc(CCC(=O)N[C@@H]2C(=O)N3C(C(=O)O)=C(C)CS[C@H]23)cc1 [Compound 110] | 100 (≈ 239 µM) |
| CC1=C(C(=O)O)N2C(=O)[C@@H](NC(=O)CCc3ccc(Br)cc3)[C@H]2SC1 [Compound 111] | 100 (≈ 235 µM) |
| CC1=C(C(=O)O)N2C(=O)[C@@H](NS(=O)(=O)Cc3ccccc3)[C@H]2SC1 [Compound 112] | > 100 |
| CC1=C(C(=O)O)N2C(=O)[C@@H](NC(=O)CCc3ccc(F)cc3)[C@H]2SC1 [Compound 113] | 100 (≈ 274 µM) |
| CC1=C(C(=O)O)N2C(=O)[C@@H](NC(=O)c3ccc(Cl)cc3)[C@H]2SC1 [Compound 114] | > 100 |
| CC1=C(C(=O)O)N2C(=O)[C@@H](NC(=O)Cc3ccc(Cl)cc3)[C@H]2SC1 [Compound 115] | 100 (≈ 273 µM) |
| CC1=C(C(=O)O)N2C(=O)[C@@H](NC(=O)CCc3ccccc3Cl)[C@H]2SC1 [Compound 116] | > 100 |
| CCCNC(=O)C1=C(C)CS[C@@H]2[C@H](NC(=O)CCc3ccc(OC)cc3)C(=O)N12 [Compound 117] | > 100 |

test system: HepG2 cells; experiment: not given; type: cell-based; settings: human, 2 day
Method: Three lead compounds were identified in the first round of high throughput screening (700 compounds), which had minimal inhibitory concentrations (MIC) of 0.4-0.8 μg/mL after a six day exposure to drug (NRd6) in the model of non-replication at pH 5.0, and LD50's of 100 to >100 μg/mL against HepG2 cells (a 2 day exposure).
Furthermore, LD50 values were determined using a human hepatoma cell line (HepG2) using intracellular ATP levels as a measurement that correlated with cellular viability.

| Structure (SMILES) | HepG2 Toxicity LD50 [µg/mL] | HepG2 LD50 [µg/mL] |
| --- | --- | --- |
| CCCCOC(=O)C1C(C)=CS[C@@H]2[C@H](NC(=O)COc3ccccc3)C(=O)N12 (stereo partly shown) [Compound 98] | 100 | – |
| CCCOC(=O)C1=C(C)CS[C@@H]2[C@H](NC(=O)CCc3ccc(OC)cc3)C(=O)N12 [Compound 99] | >100 | – |
| CC1=C(C(=O)OCc2ccccc2)N2C(=O)[C@@H](NC(=O)CCc3ccc(Cl)cc3)[C@H]2SC1 [Compound 100] | 50 | – |
| COc1ccc(CCC(=O)N[C@@H]2C(=O)N3C(C(=O)OCc4ccccc4)=C(C)CS[C@H]23)cc1 [Compound 101] | >100 | – |
| CC1=C(C(=O)OCc2ccccc2)N2C(=O)[C@@H](NC(=O)COc3ccc(Cl)cc3)[C@H]2SC1 [Compound 102] | >100 | – |
| COc1ccc(OCC(=O)N[C@@H]2C(=O)N3C(C(=O)OCc4ccccc4)=C(C)CS[C@H]23)cc1 [Compound 103] | >100 | – |
| CC1=C(C(=O)OCc2ccccc2)N2C(=O)[C@@H](NC(=O)COc3ccccc3)[C@H]2SC1 [Compound 104] | >100 | – |
| C#CCOC(=O)N[C@@H]1C(=O)N2C(C(=O)OCC#C)=C(C)CS[C@H]12 [Compound 105] | >100 | – |
| C#CCOC(=O)C1=C(C)CS[C@@H]2[C@H](N(CC#C)CC#C)C(=O)N12 [Compound 106] | 100 | – |
| C=CC1=C(C(=O)O)N2C(=O)[C@@H](NC(=O)/C(=N\O)c3csc(N)n3)[C@H]2SC1 [Compound 107] | >100 | – |
| COc1ccc(CCC(=O)N[C@@H]2C(=O)N3C(C(=O)O)=C(C)CS[C@H]23)cc1 [Compound 108] | – | >100 |
| CC1=C(C(=O)O)N2C(=O)[C@@H](NC(=O)COc3ccccc3)[C@H]2SC1 [Compound 109] | – | >100 |
| CCCCOc1ccc(CCC(=O)N[C@@H]2C(=O)N3C(C(=O)O)=C(C)CS[C@H]23)cc1 [Compound 110] | – | >100 |
| CC1=C(C(=O)O)N2C(=O)[C@@H](NC(=O)CCc3ccc(Br)cc3)[C@H]2SC1 [Compound 111] | – | >100 |
| CC1=C(C(=O)O)N2C(=O)[C@@H](NS(=O)(=O)Cc3ccccc3)[C@H]2SC1 [Compound 112] | – | >100 |
| CC1=C(C(=O)O)N2C(=O)[C@@H](NC(=O)CCc3ccc(F)cc3)[C@H]2SC1 [Compound 113] | – | >100 |
| CC1=C(C(=O)O)N2C(=O)[C@@H](NC(=O)c3ccc(Cl)cc3)[C@H]2SC1 [Compound 114] | – | >100 |
| CC1=C(C(=O)O)N2C(=O)[C@@H](NC(=O)Cc3ccc(Cl)cc3)[C@H]2SC1 [Compound 115] | – | >100 |
| CC1=C(C(=O)O)N2C(=O)[C@@H](NC(=O)CCc3ccccc3Cl)[C@H]2SC1 [Compound 116] | – | >100 |
| CCCNC(=O)C1=C(C)CS[C@@H]2[C@H](NC(=O)CCc3ccc(OC)cc3)C(=O)N12 [Compound 117] | – | >100 |
